{"source": "paper PMC5650142", "about": "“GPR40 partial agonists and AgoPAMs: Differentiating effects on glucose and hormonal secretions in the rodent” (PLoS ONE, 2017)", "key": {"[1]": {"tested_on": "wild type C57BL/6 and GLP-1R-/- mice", "experiment": "Mouse glucose tolerance test (IPGTT, wild type and GLP-1R-/- mice)", "format": "in vivo", "design": "Plasma Insulin Net AUC: unit not given beside the values; Blood Glucose Net AUC: unit not given here", "conditions": "for Blood Glucose / Plasma Insulin: 10 mpk, 10 mg/kg; for Blood Glucose Net AUC / Plasma Insulin Net AUC: @ 10, individual animals", "description": "Wild type C57BL/6 mice and GLP-1R^-/- mice were fed a high fat diet (D12492i, Research Diets) for 6 weeks prior to GTT. On the day of study, mice were fasted at 1 h post lights on, and body weights were measured. […] Mice were then dosed PO at a volume of 10 ml/kg with vehicle (0.5% methylcellulose), MK-2305 (a GPR40 partial agonist described in Hauge et al) at 10 mg/kg, or AP1 at 30 mg/kg. Dosages of MK-2305 and AP1 were administered at maximal efficacious doses as determined by acute dose titrations with efficacy determined via reduction in glucose during an IPGTT (data not shown). […] Blood glucose was measured again (time = 0) just prior to an intraperitoneal (IP) dextrose challenge of 1 g/kg at 10 ml/kg dose volume (Dextrose, Hospira Inc., Lake Forrest IL). A subset of vehicle treated mice was injected with 0.9% NaCl saline to serve as negative control. Blood glucose was then measured at 10, 20, 40, 60, and 120 min after challenge. To capture insulin secretion during the IPGTT, blood via tail vein was collected at t = - 60, 0, 10, 20, 40, 60 min post challenge.\nNet AUC was calculated by subtracting the average AUC of the saline group from each groups’ total AUC.\n(§1) Blood for insulin, glucagon, GLP-1, GIP, and PYY measurements was collected into K2EDTA Microtainer tubes (BD, Franklin Lakes, NJ) pre-treated with DPP4 inhibitor (Millipore, Billerica, MA) and cOmplete™ Protease Inhibitor Cocktail Tablets (Roche Diagnostics, Indianapolis, IN). Tubes were centrifuged for 10 minutes at 5000 RPM, and plasma was aliquotted for analysis. Plasma insulin levels were measured via EIA (Mesoscale Discovery ELISA Kit, Gaithersburg MD). Rat plasma total GLP-1 was measured using Total GLP-1 (ver.2) Assay Kit (Cat#: K150JVC). The measurement of active GLP-1 was carried out in a similar manner as that described for total GLP-1 assay with the exception that MSD Active GLP-1 (ver. 2) assay kit (Cat# K150JWC) was used. Rat plasma glucagon was measured using an in-house glucagon assay developed as a MSD format sandwich immunoassay (Merck & Co., Inc., MRL, Kenilworth, NJ USA). The antibody specificity was cross validated via mass- spec using procedures described in Lee et al. Briefly, MSD Streptavidin Gold plates were coated with 2 μg/ml biotin mouse monoclonal antibody generated to glucagon. Test samples were added to the plates and a separate Sulfo- tagged monoclonal antibody was used to detect the captured glucagon protein (2 μg/ml). The ELISA was carried out in the standard reagents in the MSD format. The plate was read on the SECTOR Imager 6000 Reader. Metabolic hormones GIP (Gastric Inhibitory Polypeptide) and PYY (Peptide YY) were measured in rat plasma using the Rat Metabolic Magnetic Bead Panel (EMD Millipore, Billerica, MA). The assay was performed according to manufacturer protocol."}, "GK rats": {"tested_on": "GK rats", "experiment": "GK rat acute efficacy (glucose, insulin, glucagon after single dose)", "format": "in vivo", "conditions": "GK rat, single PO dose at maximal efficacious dose", "description": "Ambient blood glucose was measured via tail snip with a glucometer (OneTouch Ultra, Lifescan Inc., Milpitas, CA). Body weights were then measured, and food was removed approximately 1 hr post lights on. Animals were sorted into treatment groups based on ambient glucose. At approximately 10 AM, glucose was measured and blood for insulin, glucagon, and drug exposure was collected. […] Each compound tested was dosed at its maximal effective dose determined through a series of dose titrations using this experimental paradigm (data not shown). Effects of treatment on glucose, insulin, and glucagon were measured at 1, 2, 4, and 24 hrs post dose. After the 4 hr blood collection, food was returned overnight and removed the next day at 1 hr post lights on.\nas §1"}, "[2]": {"conditions": "GLP-1R-/- and wild type mice, MK-2305 10 mg/kg, AP1 30 mg/kg PO"}, "[3]": {"conditions": "KO mice, Time 0, individual animals"}, "[4]": {"conditions": "KO mice, Time 10, individual animals"}, "[5]": {"conditions": "KO mice, Time 20, individual animals"}, "[6]": {"conditions": "KO mice, Time 40, individual animals"}, "[7]": {"conditions": "KO mice, Time 60, individual animals"}, "[8]": {"conditions": "KO mice, Time -60, individual animals"}, "[9]": {"conditions": "WT mice, Time 0, individual animals"}, "[10]": {"conditions": "WT mice, Time 10, individual animals"}, "[11]": {"conditions": "WT mice, Time 20, individual animals"}, "[12]": {"conditions": "WT mice, Time 60, individual animals"}, "[13]": {"conditions": "WT mice, Time -60, individual animals"}}, "note": "“And” between values parts separate entries of the source, which are not always exact repeats. Equal entries are not always repeated.", "data": [{"smiles": "O=C1NC(=O)C(C2CCOc3cc(Oc4ccc(C(F)(F)F)cc4Cl)ccc32)S1", "note": "(centres unmarked) [MK-2305, reference compound]", "values": [{"measurement": "blood glucose excursion during IPGTT", "setting": "[1]; [2]", "value": "reduced"}, {"measurement": "insulin following dextrose challenge (IPGTT)", "setting": "[1]; [2]", "value": "no effect"}, {"measurement": "Blood Glucose", "setting": "[1]; [3]", "value": "151 mg/dL and 150 mg/dL and 186 mg/dL and 194 mg/dL and 152 mg/dL and 171 mg/dL and 161 mg/dL"}, {"measurement": "Plasma Insulin", "setting": "[1]; [3]", "value": "0.848 ng/mL and 0.42 ng/mL and 0.528 ng/mL and 1.053 ng/mL and 0.383 ng/mL and 0.356 ng/mL and 0.379 ng/mL"}, {"measurement": "Blood Glucose", "setting": "[1]; [4]", "value": "359 mg/dL and 371 mg/dL and 443 mg/dL and 389 mg/dL and 416 mg/dL and 530 mg/dL"}, {"measurement": "Plasma Insulin", "setting": "[1]; [4]", "value": "1.175 ng/mL and 0.368 ng/mL and 0.464 ng/mL and 0.199 ng/mL and 0.51 ng/mL and 0.24 ng/mL and 0.661 ng/mL"}, {"measurement": "Blood Glucose", "setting": "[1]; [5]", "value": "361 mg/dL and 257 mg/dL and 455 mg/dL and 411 mg/dL and 438 mg/dL and 432 mg/dL and 566 mg/dL"}, {"measurement": "Plasma Insulin", "setting": "[1]; [5]", "value": "1.151 ng/mL and 0.543 ng/mL and 0.441 ng/mL and 1.015 ng/mL and 0.58 ng/mL and 0.405 ng/mL and 0.254 ng/mL"}, {"measurement": "Blood Glucose", "setting": "[1]; [6]", "value": "332 mg/dL and 292 mg/dL and 386 mg/dL"}, {"measurement": "Plasma Insulin", "setting": "[1]; [6]", "value": "0.591 ng/mL and 0.442 ng/mL and 0.194 ng/mL and 0.983 ng/mL and 0.199 ng/mL and 0.278 ng/mL and 0.213 ng/mL"}, {"measurement": "Blood Glucose", "setting": "[1]; [7]", "value": "346 mg/dL and 269 mg/dL and 435 mg/dL and 335 mg/dL and 332 mg/dL and 352 mg/dL and 512 mg/dL"}, {"measurement": "Plasma Insulin", "setting": "[1]; [7]", "value": "0.58 ng/mL and 0.57 ng/mL and 0.264 ng/mL and 0.784 ng/mL and 0.335 ng/mL and 0.275 ng/mL and 0.261 ng/mL"}, {"measurement": "Blood Glucose", "setting": "[1]; KO mice, Time 120, individual animals", "value": "303 mg/dL and 186 mg/dL and 397 mg/dL and 270 mg/dL and 224 mg/dL and 260 mg/dL and 402 mg/dL"}, {"measurement": "Blood Glucose", "setting": "[1]; [8]", "value": "180 mg/dL and 203 mg/dL and 200 mg/dL and 205 mg/dL and 188 mg/dL and 236 mg/dL and 197 mg/dL"}, {"measurement": "Plasma Insulin", "setting": "[1]; [8]", "value": "0.786 ng/mL and 0.573 ng/mL and 0.295 ng/mL and 0.819 ng/mL and 0.47 ng/mL and 0.336 ng/mL and 0.379 ng/mL"}, {"measurement": "Blood Glucose", "setting": "[1]; KO mice, Time -90, individual animals", "value": "165 mg/dL and 181 mg/dL and 160 mg/dL and 198 mg/dL and 154 mg/dL and 193 mg/dL and 185 mg/dL"}, {"measurement": "Blood Glucose Net AUC", "setting": "[1]; KO mice", "value": "26136 and 8611 and -3694 and 17776 and 10566 and 8161 and 9656"}, {"measurement": "Plasma Insulin Net AUC", "setting": "[1]; KO mice", "value": "-6.842 and 24.846 and 2.455 and -5.609 and 23.949 and -2.988 and -7.445"}, {"measurement": "Blood Glucose", "setting": "[1]; [9]", "value": "173 mg/dl and 130 mg/dl (2×) and 172 mg/dl and 136 mg/dl and 151 mg/dl and 154 mg/dl"}, {"measurement": "Plasma Insulin", "setting": "[1]; [9]", "value": "2.909 ng/mL and 1.344 ng/mL and 1.761 ng/mL and 0.655 ng/mL and 1.362 ng/mL and 1.244 ng/mL and 1.598 ng/mL"}, {"measurement": "Blood Glucose", "setting": "[1]; [10]", "value": "300 mg/dL and 375 mg/dL and 416 mg/dL and 324 mg/dL and 318 mg/dL and 369 mg/dL and 438 mg/dL"}, {"measurement": "Plasma Insulin", "setting": "[1]; [10]", "value": "1.538 ng/mL and 1.501 ng/mL and 2.253 ng/mL and 0.689 ng/mL and 0.787 ng/mL and 2.31 ng/mL and 1.19 ng/mL"}, {"measurement": "Blood Glucose", "setting": "[1]; [11]", "value": "341 mg/dL and 386 mg/dL and 396 mg/dL and 278 mg/dL and 357 mg/dL and 365 mg/dL and 487 mg/dL"}, {"measurement": "Plasma Insulin", "setting": "[1]; [11]", "value": "3.87 ng/mL and 1.373 ng/mL and 1.842 ng/mL and 0.672 ng/mL and 0.733 ng/mL and 1.031 ng/mL and 1.681 ng/mL"}, {"measurement": "Plasma Insulin", "setting": "[1]; WT mice, Time 40, individual animals", "value": "3.585 ng/mL and 1.27 ng/mL and 1.204 ng/mL and 0.278 ng/mL and 1.824 ng/mL and 0.546 ng/mL and 1.72 ng/mL"}, {"measurement": "Blood Glucose", "setting": "[1]; [12]", "value": "285 mg/dL and 328 mg/dL and 270 mg/dL and 195 mg/dL and 296 mg/dL and 260 mg/dL and 442 mg/dL"}, {"measurement": "Plasma Insulin", "setting": "[1]; [12]", "value": "2.679 ng/mL and 1.626 ng/mL and 1.133 ng/mL and 0.252 ng/mL and 0.763 ng/mL and 0.592 ng/mL and 1.175 ng/mL"}, {"measurement": "Blood Glucose", "setting": "[1]; WT mice, Time 120, individual animals", "value": "328 mg/dL and 300 mg/dL and 191 mg/dL and 160 mg/dL and 218 mg/dL and 205 mg/dL and 311 mg/dL"}, {"measurement": "Blood Glucose", "setting": "[1]; [13]", "value": "177 mg/dl (2×) and 182 mg/dl and 162 mg/dl (2×) and 153 mg/dl and 176 mg/dl"}, {"measurement": "Plasma Insulin", "setting": "[1]; [13]", "value": "2.201 ng/mL and 1.482 ng/mL and 1.004 ng/mL and 0.467 ng/mL and 0.749 ng/mL and 1.475 ng/mL and 2.049 ng/mL"}, {"measurement": "Blood Glucose", "setting": "[1]; WT mice, Time -90, individual animals", "value": "182 mg/dL and 151 mg/dL and 166 mg/dL and 146 mg/dL and 175 mg/dL and 155 mg/dL and 164 mg/dL"}, {"measurement": "Blood Glucose Net AUC", "setting": "[1]; WT mice", "value": "22732 and 10047 and 12357 and 7637 and -1383 and 8197 and 6232"}, {"measurement": "Plasma Insulin Net AUC", "setting": "[1]; WT mice", "value": "17.355 and 112.532 and 10.066 and 20.452 and -45.584 and -4.157 and -12.281"}]}, {"smiles": "Cc1cc(OCCCS(C)(=O)=O)cc(C)c1-c1cccc(COc2ccc3c(c2)OC[C@H]3CC(=O)O)c1", "note": "[TAK-875, reference compound]", "values": [{"measurement": "blood glucose vs vehicle", "setting": "GK rats; 24 hr time course", "value": "reduced from the 1 hr time point until the 8 hr time point"}, {"measurement": "Plasma Glucagon", "setting": "GK rats; up to 24 hr", "value": "not significant"}]}]}
